According to patent US20180228722A1, “UNIT DOSE PACKAGES, COMPOSITIONS, AND TREATMENT REGIMENS TO DELIVER PRO-[…] S[…] KERATIN SURFACES” (ELC Management LLC, priority 2015, published 2018):

Assays:
human neutrophils [1] = test: Release of Inflammatory Metabolites (PGE2, LTB4) and Inflammatory Metabolite Marker (5-HETE) from PMA/A23187-stimulated neutrophils, LC-MS/MS of supernatants; assay type: cell-based; details: for decrease in Inflammatory Metabolites and Inflammatory Metabolite Markers (aggregate): vs control cells exposed to inflammation precipitating condition; for net decrease in cellular concentration of Inflammatory Metabolites and Inflammatory Metabolite Markers (aggregate): vs control cells subjected only to inflammation precipitating condition; for decrease in cellular concentration of 5-HETE / decrease in cellular concentration of LTB4 / decrease in cellular concentration of PGE2: vs PMA/A23187 control
Method: (§1) Ingredients were tested to assess the ability to promote Pro-Resolution Pathway Stimulators in human neutrophils. The following Inflammatory Metabolites were measured: PGE2 and LTB4. The Inflammatory Metabolite Marker, 5-HETE, was measured. Also measured were the Pro-Resolving Lipid Mediator Markers 15-HETE, 12-HETE, 14-HDOHE, 18-HEPE, and 17-HDOHE. PGE2, LTB4, and 5-HETE are indicators of inflammation. Increases in cellular secretion of PGE2, LTB4, or 5-HETE are seen in response to inflammation precipitating conditions. Active ingredients that cause a reduction in cellular concentration of PGE2, LTB4, or 5-HETE are anti-inflammatory in nature. Cellular secretion of Pro-Resolving Lipid Mediators occurs in the inflammation resolution phase. Active ingredients that stimulate cellular secretion of Pro-Resolving Lipid Mediators (as measured by measuring Pro-Resolving Lipid Mediator Markers) help to promote resolution of inflammation.
(§2) Then, the inflammatory response was initiated by adding an inflammation precipitating ingredient, in particular PMA/[…] which is a mixture of 5-(methylamino)-2-({2R,3R,6S,8S,9R,11R)-3,9,11-trimethyl-8-[(1S)-1-methyl-2-oxo-2-(1H-pyrrol-2-yl)ethyl]-1,7-dioxaspiro[5.5]undec-2-yl}methyl)-1,3-benzoxazole-4-carboxylic acid and PMA (phorbol myristate acetate), at a concentration of 0.05 μm and 1 μm respectively to each well. After one hour the supernatants were collected and stored at −80° C. until assayed.
(§3) Cell supernatants were assayed for Inflammatory Metabolites (PGE2, LBT4), Inflammatory Metabolite Markers (5-HETE), and Pro-Resolving Lipid Mediator Markers 15-HETE, 12-HETE, 14-HDOHE, 18-HEPE, and 17-HDOHE. More specifically, analysis was performed by extraction using an Oasis HLB 96-well plate (Waters) according to manufacturer's directions.
(§4) Suitable Pro-Resolving Activators are ingredients that show an increase in cellular concentration of Pro-Resolving Lipid Mediator Markers 15-HETE, 12-HETE, 14-HDOHE, 18-HEPE, and 17-HDOHE alone or in combination, when cells exposed to an inflammation precipitating condition either before or after exposure to the active.

human neutrophils [2] = test: Release of Pro-Resolving Lipid Mediator Markers (15-HETE, 12-HETE, 14-HDOHE, 18-HEPE, 17-HDOHE) from PMA/A23187-stimulated neutrophils, LC-MS/MS of supernatants; assay type: cell-based
Method: as §1, §2, §3, §4

resveratrol salicylate
decrease in cellular concentration of Inflammatory Metabolites and Inflammation Metabolite Markers in the aggregate (better than control) (human neutrophils [1]; 0.43 ug/ml): 87% | decrease in cellular concentration of Inflammatory Metabolites and Inflammation Metabolite Markers in the aggregate (better than control) (human neutrophils [1]; 4.3 ug/ml): 163% | decrease in cellular concentration of Inflammatory Metabolites and Inflammation Metabolite Markers in the aggregate (better than control) (human neutrophils [1]; 43 ug/ml): 257% | increase in cellular concentration of Pro-Resolving Lipid Mediator Markers, in the aggregate (human neutrophils [2]; 0.43 ug/ml): not being as effective | increase in cellular concentration of Pro-Resolving Lipid Mediator Markers, in the aggregate (human neutrophils [2]; 4.3 ug/ml): 4% | increase in cellular concentration of Pro-Resolving Lipid Mediator Markers, in the aggregate (human neutrophils [2]; 43 ug/ml): 37%

Oc1ccc(C=Cc2cc(O)cc(O)c2)cc1 [resveratrol]
decrease in Inflammatory Metabolites and Inflammatory Metabolite Markers (aggregate) (human neutrophils [1]; 0.1 ug/ml): 45% | decrease in Inflammatory Metabolites and Inflammatory Metabolite Markers (aggregate) (human neutrophils [1]; 1 ug/ml): 59% | decrease in Inflammatory Metabolites and Inflammatory Metabolite Markers (aggregate) (human neutrophils [1]; 10 ug/ml): 106% | % change of Pro-Resolving Lipid Mediator Markers, in the aggregate, compared to control (human neutrophils [2]; 0.1 ug/ml): −27% | % change of Pro-Resolving Lipid Mediator Markers, in the aggregate, compared to control (human neutrophils [2]; 1 ug/ml): −16% | % change of Pro-Resolving Lipid Mediator Markers, in the aggregate, compared to control (human neutrophils [2]; 10 ug/ml): −10%

O=C(O)c1ccccc1O [salicylic acid]
net decrease in cellular concentration of Inflammatory Metabolites and Inflammatory Metabolite Markers (aggregate) (human neutrophils [1]; 0.33 μg/ml (first of range 0.33 to 33 μg/ml)): 29% | decrease in cellular concentration of 5-HETE (human neutrophils [1]; 0.33 μg/ml): 15% | decrease in cellular concentration of LTB4 (human neutrophils [1]; 0.33 μg/ml): 1% | decrease in cellular concentration of PGE2 (human neutrophils [1]; 0.33 μg/ml): 19% | net decrease in cellular concentration of Inflammatory Metabolites and Inflammatory Metabolite Markers (aggregate) (human neutrophils [1]; 3.3 μg/ml (second of range 0.33 to 33 μg/ml)): 58% | decrease in cellular concentration of 5-HETE (human neutrophils [1]; 3.3 μg/ml): 20% | decrease in cellular concentration of LTB4 (human neutrophils [1]; 3.3 μg/ml): 12% | decrease in cellular concentration of PGE2 (human neutrophils [1]; 3.3 μg/ml): 28% | net decrease in cellular concentration of Inflammatory Metabolites and Inflammatory Metabolite Markers (aggregate) (human neutrophils [1]; 33 μg/ml (third of range 0.33 to 33 μg/ml)): 46% | decrease in cellular concentration of 5-HETE (human neutrophils [1]; 33 μg/ml): 27% | decrease in cellular concentration of LTB4 (human neutrophils [1]; 33 μg/ml): 17% | decrease in cellular concentration of PGE2 (human neutrophils [1]; 33 μg/ml): 19% | change in cellular concentration of Pro-Resolving Lipid Mediators (aggregate) (human neutrophils [2]; 0.33 μg/ml, vs control cells): small increase | change in cellular concentration of all Pro-Resolving Lipid Mediator Markers in the aggregate (human neutrophils [2]; 3.3 μg/ml, vs control cells): decreased | change in cellular concentration of Pro-Resolving Lipid Mediator Marker 15-HETE (human neutrophils [2]; 33 μg/ml, vs control cells): decrease | change in cellular concentration of all Pro-Resolving Lipid Mediator Markers in the aggregate (human neutrophils [2]; 33 μg/ml, vs control cells): decreased
